Reference: PubChem BioAssay (NCI)
Values joined by “and” are separate entries in the source; they are usually repeats but may differ in a detail not shown here. Identical values can stand only once.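 Assay format: 96-well plates, 48-hour exposure. Abbreviation: GI50, concentration required for 50% inhibition of growth. TGI denotes the concentration required for complete inhibition of growth.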

tested on: 786-0 renal; experiment: inhibition of tumour cell growth, NCI panel, 48 h

Row | Compound | GI50 | TGI [µM]
1 | CCCCCCCC(=O)SCC/C=C/[C@@H]1CC(=O)NCc2cccc(n2)C2=N[C@@](C)(CS2)C(=O)N[C@@H](C(C)C)C(=O)N1 | 5.52 µM | > 33.3
2 | C[C@@H](CS(C)(=O)=O)Nc1ncc2cc(Oc3ccc(F)cc3F)c(=O)n(C)c2n1 | > 25 µM | > 25
3 | COc1cc2c(c(OC)c1O)C(=O)C(OC)C(c1ccc(O)c(O)c1)O2 (stereo not given) | 1.05 µM | > 100
4 | Cn1ccnc1C(=O)/C=C/c1ccc(CC(=O)Nc2ccc(Br)cc2)cc1 | 2.77 µM | 5.92
5 | CCOC(=O)Nc1nc2ccc(OCC)cc2s1 | > 100 µM | > 100
6 | COC(=O)[C@@H](C)C[C@H](Cc1ccc(F)cc1)NC(=O)c1csc([C@@H](C[C@H](C(C)C)N(C)C(=O)[C@@H](NC(=O)[C@H]2CCCCN2C)C(C)C)OC(C)=O)n1 | 0.00319 µM and 0.0147 µM | > 16.7
7 | COc1ccc2c(c1)C(=O)/C(=C/c1ccc(OCC(=O)Nc3nccs3)cc1)O2 | 0.237 µM | 0.563
8 | Cc1cnc(NC(=O)C(Cc2ccccc2)NC(=O)c2ccccc2)s1 (stereo not given) | 15.1 µM | 76.2
9 | CC(C)c1ccc(C(C)C(=O)N(CC2=C(C(C)c3ccccn3)c3ccccc3C2)C(C)C)cc1 (stereo not given) | 3.14 µM | 11.5
10 | Cc1nc2c(nc1C)C(=O)c1ccccc1C2=O | – | 47.1
11 | O[C@H]1[C@H]2c3cc4c(cc3CN3CCC(=C[C@@H]1O)[C@H]23)OCO4 | – | > 34
12 | O=[N+]([O-])c1cnc(Sc2ccncn2)s1 | 6.72 µM | 18.4
13 | O=C(Nc1ccc(I)cc1)c1cc([N+](=O)[O-])ccc1O | 6.4 µM | > 100
14 | Cc1cc(=O)n2[nH]c(-c3ccc(C(C)(C)C)cc3)cc2n1 | 10.3 µM | > 100
15 | O=C(O)c1cc(C(=O)O)cc(N2C(=O)c3ccccc3C2=O)c1 | – | > 100
16 | CNC(=O)c1ccccc1Nc1nc(Nc2ccc(N3CCOCC3)cc2OC)ncc1Cl | 1.03 µM | > 35.1
17 | COc1c2ccoc2c(/C=C/C=O)c2oc(-c3ccccc3)cc(=O)c12 | 26.9 µM | > 100
18 | O=C(CN1CCN(c2cc3c(cc2F)c(=O)c(C(=O)N/N=C/c2ccccc2O)cn3C2CC2)CC1)N/N=C\c1ccccc1O | 1.12 µM | > 100
19 | C=C(CNCCO)[C@@H]1CC[C@]2(CO)CC[C@]3(C)[C@H](CC[C@@H]4[C@@]5(C)CCC(N)C(C)(C)[C@@H]5CC[C@]43C)[C@@H]12 (stereo not given in full) | 1.63 µM | 3.31

tested on: COLO 205 colon; experiment: inhibition of tumour cell growth, NCI panel, 48 h

Row | Compound | GI50 [µM] | TGI [µM]
20 | CCCCCCCC(=O)SCC/C=C/[C@@H]1CC(=O)NCc2cccc(n2)C2=N[C@@](C)(CS2)C(=O)N[C@@H](C(C)C)C(=O)N1 | 0.468 | 1.62
21 | C[C@@H](CS(C)(=O)=O)Nc1ncc2cc(Oc3ccc(F)cc3F)c(=O)n(C)c2n1 | > 25 | > 25
22 | COc1cc2c(c(OC)c1O)C(=O)C(OC)C(c1ccc(O)c(O)c1)O2 (stereo not given) | 23.5 | > 82.8
23 | Cn1ccnc1C(=O)/C=C/c1ccc(CC(=O)Nc2ccc(Br)cc2)cc1 | 3.56 | 8.28
24 | CCOC(=O)Nc1nc2ccc(OCC)cc2s1 | 10.4 | > 100
25 | COC(=O)[C@@H](C)C[C@H](Cc1ccc(F)cc1)NC(=O)c1csc([C@@H](C[C@H](C(C)C)N(C)C(=O)[C@@H](NC(=O)[C@H]2CCCCN2C)C(C)C)OC(C)=O)n1 | 0.00641 | 0.0651
26 | COc1ccc2c(c1)C(=O)/C(=C/c1ccc(OCC(=O)Nc3nccs3)cc1)O2 | 0.979 | 5.09
27 | Cc1cnc(NC(=O)C(Cc2ccccc2)NC(=O)c2ccccc2)s1 (stereo not given) | 13.5 | 29.5
28 | CC(C)c1ccc(C(C)C(=O)N(CC2=C(C(C)c3ccccn3)c3ccccc3C2)C(C)C)cc1 (stereo not given) | 1.75 | 3.23
29 | Cc1nc2c(nc1C)C(=O)c1ccccc1C2=O | – | 5.57
30 | O[C@H]1[C@H]2c3cc4c(cc3CN3CCC(=C[C@@H]1O)[C@H]23)OCO4 | – | 2.79
31 | O=[N+]([O-])c1cnc(Sc2ccncn2)s1 | 1.75 | 3.35
32 | O=C(Nc1ccc(I)cc1)c1cc([N+](=O)[O-])ccc1O | 10.9 | 28.1
33 | Cc1cc(=O)n2[nH]c(-c3ccc(C(C)(C)C)cc3)cc2n1 | 11.3 | > 100
34 | O=C(O)c1cc(C(=O)O)cc(N2C(=O)c3ccccc3C2=O)c1 | – | > 100
35 | CNC(=O)c1ccccc1Nc1nc(Nc2ccc(N3CCOCC3)cc2OC)ncc1Cl | 0.103 | 0.59
36 | COc1c2ccoc2c(/C=C/C=O)c2oc(-c3ccccc3)cc(=O)c12 | 27.7 | > 100
37 | O=C(CN1CCN(c2cc3c(cc2F)c(=O)c(C(=O)N/N=C/c2ccccc2O)cn3C2CC2)CC1)N/N=C\c1ccccc1O | 0.371 | > 100
38 | C=C(CNCCO)[C@@H]1CC[C@]2(CO)CC[C@]3(C)[C@H](CC[C@@H]4[C@@]5(C)CCC(N)C(C)(C)[C@@H]5CC[C@]43C)[C@@H]12 (stereo not given in full) | 1.73 | 3.35

tested on: HCC-2998 colon; experiment: inhibition of tumour cell growth, NCI panel, 48 h

Row | Compound | GI50 [µM] | TGI [µM]
39 | CCCCCCCC(=O)SCC/C=C/[C@@H]1CC(=O)NCc2cccc(n2)C2=N[C@@](C)(CS2)C(=O)N[C@@H](C(C)C)C(=O)N1 | 1.02 | 7.48
40 | C[C@@H](CS(C)(=O)=O)Nc1ncc2cc(Oc3ccc(F)cc3F)c(=O)n(C)c2n1 | > 25 | > 25
41 | COc1cc2c(c(OC)c1O)C(=O)C(OC)C(c1ccc(O)c(O)c1)O2 (stereo not given) | 0.645 | > 100
42 | Cn1ccnc1C(=O)/C=C/c1ccc(CC(=O)Nc2ccc(Br)cc2)cc1 | 2.95 | 5.9
43 | CCOC(=O)Nc1nc2ccc(OCC)cc2s1 | 31.6 | > 100
44 | COC(=O)[C@@H](C)C[C@H](Cc1ccc(F)cc1)NC(=O)c1csc([C@@H](C[C@H](C(C)C)N(C)C(=O)[C@@H](NC(=O)[C@H]2CCCCN2C)C(C)C)OC(C)=O)n1 | – | > 16.7
45 | COc1ccc2c(c1)C(=O)/C(=C/c1ccc(OCC(=O)Nc3nccs3)cc1)O2 | 15.2 | 31.7
46 | Cc1cnc(NC(=O)C(Cc2ccccc2)NC(=O)c2ccccc2)s1 (stereo not given) | 1.83 | 5
